Results reported in patent US8344003B2, “2-pyridinecarboxamide derivatives” (MSD K. K., priority 2003, dated 2013).
pEC50: −log10 of the molar value.

Target: T1, recombinant human liver GK (Homo sapiens, UniProt P35557)
T1 construct: made in house; host or cells: E. coli
T1 sequence (P35557 1-466 isoform P35557-2): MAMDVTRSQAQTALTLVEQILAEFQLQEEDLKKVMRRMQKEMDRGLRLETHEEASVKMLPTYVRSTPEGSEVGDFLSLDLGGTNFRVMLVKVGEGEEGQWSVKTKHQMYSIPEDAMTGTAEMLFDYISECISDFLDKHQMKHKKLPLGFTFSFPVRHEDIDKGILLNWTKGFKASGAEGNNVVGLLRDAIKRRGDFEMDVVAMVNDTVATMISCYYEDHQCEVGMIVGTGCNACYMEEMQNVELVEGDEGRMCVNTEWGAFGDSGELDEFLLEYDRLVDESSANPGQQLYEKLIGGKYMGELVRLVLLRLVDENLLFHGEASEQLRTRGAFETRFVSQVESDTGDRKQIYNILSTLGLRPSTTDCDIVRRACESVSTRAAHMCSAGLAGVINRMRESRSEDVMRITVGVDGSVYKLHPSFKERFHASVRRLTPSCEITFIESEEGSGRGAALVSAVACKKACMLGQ
Test: glucokinase (GK) activation assay, Thio-NADH generation via reporter enzyme G6PDH, absorbance at 405 nm
Assay type: biochemical
Conditions: final glucose concentration 2.5 mM, 30° C.; for pEC50: GK activation; for Emax: OD value of DMSO control regarded as 100%
Description: The glucokinase activity can be determined without directly measuring glucose-6-phosphate by measuring the amount of Thio-NADH generated during the production of phosphogluconolactone from glucose-6-phosphate by a reporter enzyme glucose-6-phosphate dehydrogenase. Thus, the degree of the glucokinase activity can be determined.
The recombinant human liver GK used in this assay expressed as a FLAG fusion protein in E. coli, was purified on […] M2 AFFINITY GEL (Sigma).
Assay was carried out at 30° C. in a 96-well plate. In the plate was distributed 69 μl each of assay buffer (25 mM Hepes Buffer: pH=7.2, 2 mM MgCl2, 1 mM ATP, 0.5 mM TNAD, 1 mM dithiothreitol), to which was added 1 μl of a DMSO solution of the compound or DMSO as control. Then, 20 μl of pre-ice-cooled enzyme mixture (FLAG-GK, 20 U/ml G6PDH) was distributed thereto, to which was added 10 μl of 25 mM glucose as substrate to initiate the reaction (final glucose concentration=2.5 mM).
FLAG-GK was added so that the increase of absorbance after 5 minutes fell between 0.05 to 0.1 in the presence of 1% DMSO.
The OD values of the respective compounds to be evaluated were measured in the respective concentrations, wherein the OD value of DMSO as control was regarded as 100%. From the OD values at the respective concentrations, Emax (%) and EC50 (μM) were calculated and used as indicators of the GK activation capability of the compounds. According to the above assay, the GK activation capability of the compounds in the present invention was determined.

| SMILES | pEC50 | Emax [%] |
| --- | --- | --- |
| COc1ccc(Sc2ccc(Sc3nnc[nH]3)nc2C(=O)Nc2nccs2)cc1 [Production Example 1] | 7.30 | 997 |
| Cc1ccc(Sc2ccc(Sc3nnc[nH]3)nc2C(=O)Nc2nccs2)cn1 [Production Example 30, 3-(6-methyl-pyridine-3-yl-sulfanyl)-6-(4H-[1,2,4]triazole-3-yl-sulfanyl)-N-(thiazole-2-yl)-2-pyridine carboxamide] | 6.92 | 818 |
